Experimental data as given in publication PMC10906223 (JCI Insight, 2024).
Values joined by “and” are separate entries in the source; they are usually repeats but may differ in a detail not shown here. Equal values may be shown once.

How the values were obtained:
[1] = test system: human donor dispersed islet cells; experiment: Glucagon secretion from healthy human donor dispersed islet cells; format: cell-based; design: Glucagon secretion: unit not given here
Procedure: Pancreata of nondiabetic C57BL/6J mice were digested using collagenase P (Roche Diagnostics, catalog 11213873001), and islets were manually picked up using a stereomicroscope (ZEISS Stemi 305). […] Isolated mouse islets or provided human islets were dispersed as described ([28]). Briefly, 100–120 islets were washed 2 times using modified HBSS, then dispersed in 600 μL Accutase (Innovative Cell Technologies, catalog AT-104) by gently pipetting up and down for 7 minutes at 37°C. […] Following refreshing of KRBH, cells were dispensed in 8 microfuge tubes (2,000 cells/tube) and treated with WCDD301, preclustered Ephrin-A5 Fc, or preclustered Fc in the presence or absence of the competitive inhibitor of EphA4 receptor, rhyncophylline ([60]) (MilliporeSigma, catalog SML2345). In the presence or absence of these effectors, secretion assay was performed sequentially as shown in Supplemental Table 5. […] Preclustering of Ephrin-A5 Fc was done by mixing Ephrin-A5 Fc or Fc alone (BioLegend, catalog 790102) with anti-Fc antibody (Invitrogen, catalog A16086) (1:10 molar ratio) 20 minutes before treatment ([62]). […] Shedding of cleaved EphA4 was measured from the cell culture medium. Experiments were performed by dispersion of 200 islets, and EphA4 levels in media were measured by EphA4 ELISA (ABclonal, catalog RK06572).
The Integrated Islet Distribution Program provided us human donor islets with their characteristics (Supplemental Table 6). Islets were centrifuged at 500g for 3 minutes, resuspended in CMRL 1066 medium (Gibco, catalog 1150-037) containing 11 mM glucose, and rested in an incubator overnight.
For the hormone secretion assay, islets or dispersed islet cells were adapted in KRBH buffer containing 11 mM glucose for 1 hour. Then, after 2 washes in HBSS containing 11 mM glucose, islets or cells were treated in the following sequential order in the presence or absence of WCDD301: incubation in KRBH (1 mM glucose, 30 minutes) followed by medium collection, incubation in KRBH (11 mM glucose, 30 minutes) followed by medium collection.

diabetic NOD mice = experiment: Plasma insulin in NOD mice after treatment; format: in vivo, mouse; conditions: WCDD301-treated diabetic NOD mice; Figure 6C
Procedure: Terminal blood was collected into microfuge tubes containing K2-EDTA (supplemented by 45 mM phenylmethylsulphonyl fluoride and 0.77 μM aprotinin) through cardiac puncture. Plasma was separated by centrifugation (2,000g for 10 minutes at 4°C) and kept at –80°C until analysis. Plasma samples with hemolysis were excluded from the study. […] Values of BUN, creatinine, ALB, ALT, and AST were determined by a Roche Cobas C501 Autoanalyzer as performed by the Washington University Diabetes Research Center Translational Diagnostics Core. Reference intervals of blood chemistry parameters for inbred NOD mice were extracted from the Mouse Phenome Database (https://phenome.jax.org/).

[2] = Microsomal stability assay, human liver microsomes; format: in vitro ADME; conditions: for Remaining in hepatic microsomes (100 at 0 min): human microsomes, Figure 5C
Procedure: A total of 445 μL of the working solution was transferred into prewarmed incubation plates for treated (T60) and control (NCF60) measurements. After preincubation (10 minutes at 37°C with constant shaking), 54 μL was transferred to the blank plate, followed by 6 μL of NADPH and 180 μL quenching solution. In parallel, 5 μL of WCDD301 (100 μM) was added into incubation plates (T60 and NCF60) containing microsomes and mixed thoroughly (3 times). For the NCF60 plate, 50 μL of buffer was added, mixed (thoroughly, 3 times), shaken, and incubated at 37°C for 60 minutes. In the quenching plate T0, quenching solution (180 μL) and NADPH cofactor (6 μL) were added. For T60 plate, 54 μL of the mixture was placed into the quenching plate (for T0 point), followed by adding 44 μL NADPH cofactor with shaking incubation at 37°C for 60 minutes. Quenching solution (180 μL) was added to quenching plates at 5, 15, 30, 45, and 60 minutes, and 60 μL of sample was transferred from T60 plate per time point to the quenching plates. For the NCF60 plates, 60 μL sample from the NCF60 incubation plate was transferred to the quenching plate (containing quenching solution) at the 60-minute time point. After plates were shaken for 10 minutes and centrifuged (1,750g, 20 minutes at 4°C), 80 μL of the supernatant was transferred into 240 μL HPLC water for LC-MS/MS analysis. The following first-order kinetic equation was used to calculate half-life (T1/2): [drawing 3]; when
Then, intrinsic clearance [CLint (microsomal; mic)] and hepatic clearance [CLint (liver)] were predicted using the following equations ([66]): […]

## CC(=O)OCC(N)(COC(C)=O)COC(C)=O [WCDD301, 2-(acetoxymethyl)-2-aminopropane-1,3-diyl diacetate]
[1]; 1, 3 or 6 hours exposure, 1 mM and 11 mM glucose
  Effect on glucagon secretion: dose-dependent and time-dependent suppression of glucagon secretion
[1]; 1 hour exposure, WCDD301 0.75 µM, 1 mM (first group), Figure 2A
  Glucagon secretion: 48.0 and 44.0 and 43.0
[1]; 1 hour exposure, WCDD301 0.75 µM, head printed 1 mM (second group c4-c7), Figure 2A
  Glucagon secretion: 55.8 and 56.2 and 53.0
[1]; 1 hour exposure, WCDD301 1.5 µM, 1 mM (first group), Figure 2A
  Glucagon secretion: 41.5 and 42.9 and 40.0
[1]; 1 hour exposure, WCDD301 1.5 µM, head printed 1 mM (second group c4-c7), Figure 2A
  Glucagon secretion: 50.8 and 55.7 and 48.0
[1]; 1 hour exposure, WCDD301 3 µM, 1 mM (first group), Figure 2A
  Glucagon secretion: 40.5 and 41.8 and 38.0
[1]; 1 hour exposure, WCDD301 3 µM, head printed 1 mM (second group c4-c7), Figure 2A
  Glucagon secretion: 49.7 and 48.4 and 44.0
[1]; 3 hours exposure, WCDD301 0.75 µM, 1 mM (first group), Figure 2B
  Glucagon secretion: 41.6 and 44.5 and 43.0
[1]; 3 hours exposure, WCDD301 0.75 µM, head printed 1 mM (second group c4-c7), Figure 2B
  Glucagon secretion: 66.0 and 60.4 and 68.0
[1]; 3 hours exposure, WCDD301 1.5 µM, 1 mM (first group), Figure 2B
  Glucagon secretion: 44.9 and 42.7 and 41.0
[1]; 3 hours exposure, WCDD301 1.5 µM, head printed 1 mM (second group c4-c7), Figure 2B
  Glucagon secretion: 58.5 and 55.8 and 60.0
[1]; 3 hours exposure, WCDD301 3 µM, 1 mM (first group), Figure 2B
  Glucagon secretion: 42.4 and 42.3 and 41.0
[1]; 3 hours exposure, WCDD301 3 µM, head printed 1 mM (second group c4-c7), Figure 2B
  Glucagon secretion: 66.8 and 54.9 and 52.0
[1]; 6 hours exposure, WCDD301 0.75 µM, 1 mM (first group), Figure 2C
  Glucagon secretion: 42.9 and 40.6 and 44.0
[1]; 6 hours exposure, WCDD301 0.75 µM, head printed 1 mM (second group c4-c7), Figure 2C
  Glucagon secretion: 67.1 and 76.1 and 81.0
[1]; 6 hours exposure, WCDD301 1.5 µM, 1 mM (first group), Figure 2C
  Glucagon secretion: 42.5 and 46.0 and 43.0
[1]; 6 hours exposure, WCDD301 1.5 µM, head printed 1 mM (second group c4-c7), Figure 2C
  Glucagon secretion: 67.6 and 68.1 and 62.0
[1]; 6 hours exposure, WCDD301 3 µM, 1 mM (first group), Figure 2C
  Glucagon secretion: 39.8 and 39.3 and 37.0
[1]; 6 hours exposure, WCDD301 3 µM, head printed 1 mM (second group c4-c7), Figure 2C
  Glucagon secretion: 56.5 and 55.1 and 50.0
Diabetic NOD mice
  Plasma insulin: Undetectable
[2]; human higher than mouse
  Microsomal stability in human versus mouse preparation: > 1.5 fold
[2]; 5 min
  Remaining in hepatic microsomes (100 at 0 min): 86.1
[2]; 15 min
  Remaining in hepatic microsomes (100 at 0 min): 78
[2]; 30 min
  Remaining in hepatic microsomes (100 at 0 min): 77.8
[2]; 45 min
  Remaining in hepatic microsomes (100 at 0 min): 77.5
[2]; 60 min
  Remaining in hepatic microsomes (100 at 0 min): 72.4
[2]; human, liver microsomes
  half-life at 1 µM: > 2.42 h
[2]; human, liver microsomes, read-out: Intrinsic microsomal clearance
  microsomal CLint at 1 µM: < 9.6 µL/min/mg
[2]; human, predicted from microsomal data
  Hepatic clearance: < 8.6 mL/min/kg
